The test system of data set [1] is BMDCs. Briefly: In vitro antigen presentation ([…]/H-2K^b) in BMDCs. The format is cell-based, C57BL/6 mice. The procedure: To examine TLR2-specific antigen uptake and presentation, BMDCs were isolated from TLR2^WT and TLR2^–/– mice as described above. BMDC cells (3 × 10^5) were seeded in the 24-well plate. […] C8138), 20 or 40 μM dynasore (Sigma, no. 324410), 1 or 2 μM cathepsin S inhibitor (MCE, no. LY 3000328), 1 or 2 μM methyl-β-cyclodextrin (Sigma-Aldrich, no. C4555), or 1 or 2 mM amiloride (Merck, no. A7410) 1 mg/mL for 30 min. After pretreatment, labeled or native samples were treated in the wells, followed by antigen uptake or presentation analyzed by flow cytometry as described above.

Data set [2] concerns BMDCs. Format: cell-based, C57BL/6 mice.
Another data set relates to DC2.4 cells. Briefly: In vitro cytotoxicity, CCK-8. The following applies: different concentrations, CCK-8 18 h after treatment. As to the method:
(§1) The in vitro cytotoxicity test was assessed using Cell Counting Kit (CCK)-8 assays (Dojindo, no. CK04). DC2.4, Raw 264.7, and TC-1 cells were seeded onto 96-well plates for 24 h before treating them with different concentrations of EUCV and doxorubicin. A 10% CCK-8 solution was added to each well 18 h after treatment, and the plates were incubated at 37°C in a 5% CO2 atmosphere for 30 min to 4 h. The absorbance at 450 nm was detected using an instrument. Relative cell viability was calculated as a percentage of untreated control cells. To assess in vivo toxicity, E7 (100.6 nmol) and EUCV at 25 mpk (25.2 nmol) and 100 mpk (100.6 nmol) were subcutaneously injected into the backs of C57BL/6 mice. […] Mouse body weight was measured immediately after administration and at 24 h intervals, and at 48 h the mice were euthanized to measure spleen size to evaluate splenomegaly. After vaccine administration, blood was drawn at 2, 8, and 24 h, and cytokines IL-6 (BD, no. 555240) and IL-12p40 (BD, no. 555165) in serum were quantified using ELISA.

A further data set deals with Raw 264.7 cells. Briefly: In vitro cytotoxicity, CCK-8. Conditions: different concentrations, CCK-8 18 h after treatment. The procedure: as §1
The test system of another data set is TC-1 cells. Put plainly: In vitro cytotoxicity, CCK-8. The format is cell-based, mouse. The following applies: different concentrations, CCK-8 18 h after treatment. The procedure: as §1
The subject of data set [3] is spleen cells re-stimulated with epitope peptides. Put plainly: SLP screening, IFN-γ ELISpot. The following applies: 20 μg SLP with U (100 μg) s.c. twice, spleen cells 7 days after final immunization. Format: in vivo, C57BL/6 mice. As to the method: Seven-week-old C57BL/6 mice were immunized subcutaneously in the right back twice at 1-week intervals using SLPs (HPV16 E6_23–42, E6_43–62, E6_123–143, E75–25, E7_43–62, and E7_76–95; 20 μg per SLP) with U (100 μg). After 7 days at final immunization, cells were isolated from the spleen and seeded in the ELISpot well in triplicates (5 × 10^5 cells per well) with 10 μg/mL of re-stimulatory 8–9 mer epitope peptides (HPV16 E6_29–37, E6_49–57, E6_129–138, E7_11–19, E7_49–57, and E7_82–90), respectively. Antigen-specific immune responses were detected by AID EliSpot Reader (AID, no. ELR08).

The next data set relates to TC-1 tumors. Briefly: TC-1 tumor model, combination with anti-PD-1 blockade. The format is in vivo, C57BL/6 mice. The procedure:
TC-1 tumor cells expressing HPV16-E6 and E7 proteins and E.G7-OVA cells expressing chicken OVA were used to generate of mouse tumor model. For the therapeutic cancer vaccine model, 7-week-old C57BL/6 mice were subcutaneously injected on the right flank with TC-1 cells (1 × 10^5 cells per mouse) in 100 μL DPBS. On day 6 when tumors measured 100 mm^3 […], treatment with 5 nmol of E, E+U, and EUCV was initiated as indicated in the schedule. On day 20 mice were sacrificed, and tumor tissues were collected for TILs analysis. For the anti-PD-1 antibody combination model, 5 nmol of E and EUCV was injected subcutaneously, and 200 μg of anti-PD-1 antibody (BioXcell, clone 29F.1A12, no. BE0273) was injected intraperitoneally as indicated in the schedule. On day 20 mice were sacrificed, and tumor tissues were collected for qRT-PCR and immunohistochemistry analysis. Survival was recorded by observing the mice up to 60 days and mice were euthanized when tumor volume reached 1,500 mm^3. For the E.G7-OVA tumor model, 7-week-old C57BL/6 mice were subcutaneously injected on the right flank with E.G7-OVA cells (1 × 10^6 cells per mouse) in 100 μL DPBS. On day 3 when the tumor measured 100 mm^3 […], treatment with 5 nmol of O, O+U, and OUCV was initiated as indicated in the schedule. On day 17 mice were sacrificed, and tumor tissue was collected for TIL analysis. In all experiments, tumors were measured 3 times a week using a caliper and calculated using the formula V(volume:mm^3)=L(length)×W^2(width)×0.52 ,[5] and mice were euthanize when tumor volume reached 1,500 mm^3.

The nature of data set [4]: Biodistribution to lymph nodes by IVIS imaging. The format is in vivo, C57BL/6 mice. Conditions: subcutaneous, 5 nmol FAM-labeled, IVIS over time, n = 3 per group. As to the method: Seven-week-old C57BL/6 mice were subcutaneously injected with 5 nmol FAM-E-, FAM-E+U-, or FAM-labeled EUCV, respectively. After 0.5, 2, 6, or 24 h, organs were collected and washed with PBS to remove any remaining blood. For biodistribution analysis, images were obtained using an In Vivo Imaging System (IVIS) Lumina II imaging systems (PerkinElmer; excitation 494 nm, emission 518 nm) and analyzed by Living Image software.

A short description of data set [5]: Pharmacokinetics: plasma level of FAM-labeled antigen after injection. Format: in vivo. Conditions: subcutaneous, 5 nmol 5-FAM-labeled, C57BL/6 mice, n = 3 per group, plasma diluted 1:20 in PBS, fluorescence Ex/Em 494/518 nm, followed for 24 h. As to the method:
Seven-week-old mice were intravenously or subcutaneously injected with 5 nmol labeled SLP or protein. At the indicated time point, blood was collected using ophthalmic bleeding into heparin-coated micro hematocrit capillary tubes (Fisherbrand, no. 22-362574). After being transferred blood into a microtube, plasma was isolated from blood by centrifugation at 4°C for 10 min at 1,000 × g to eliminate the cells, and then centrifugation at 4°C for 15 min 2,000 × g for removed platelets. The plasma was diluted 1:20 into PBS and measured on Infinite 200 PRO (TECAN) against a standard curve of analytes diluted into PBS (Ex/Em: 494/518 nm). All plasma was normalized to the maximum fluorescence detected in the individual injection sample and plotted as percent injection dose (% ID) versus time. The half-life was calculated by fitting the intravenous plasma curve using C=C0×e^–kt . The subcutaneous curve was fit to C=[F×ka×C0/VD(ka–k)]×(e^–k×t–e^–ka×t ), where C is the plasma concentration of indicated times, C0 is the initial serum concentration, k is the elimination rate constant, F is the systemic absorbance, ka is the absorption rate constant, VD is the volume of distribution.[72] The curve graphs were represented using nonlinear regression on GraphPad Prism.

The test system of data set [6] is bone marrow-derived dendritic cells (BMDCs). Put plainly: BMDC stimulation: costimulatory molecules and cytokines. The format is cell-based, C57BL/6 mice. The following applies: 100 nM, 24 h, ELISA. As to the method:
Bone marrow was harvested from femurs and tibias of C57BL/6 mice. Red blood cells were lysed with Pharm Lyse lysing solution (BD, no. 555899), and the remaining cells were washed using DPBS (HyClone, no. SH30378.02), followed by centrifugation to the collection. Bone marrow cells were resuspended at a concentration of 1 × 10^6 cells/mL in RPMI-1640 medium supplemented with 10% FBS, 1% streptomycin-penicillin, and 20 ng/mL GM-CSF (R&D Systems, no. 415-ML-005). On day 3, add an additional medium of the same supplemented as described above. BMDCs were harvested on day 6 and seeded at 3 × 10^5 cells/mL in 24-well plates for stimulation.
Differentiated THP-1, BMDC (3 × 10^5 cells per well) were seeded, and after 24 h starved with serum-free-medium for 1 h. […] To measure the inflammatory cytokine level, the culture medium was harvested, centrifuged at 500 × g for 10 min at 4°C, and the supernatant was separated. The expression of inflammatory cytokines was measured using hTNF-α (BD, no. 555212), IL-12p70 (BD, no. 555256), IL-12p40 (BD, no. 555165), and IL-6 (BD, no. 555240) ELISA kits according to the manufacturer’s instructions. To investigate the expression of costimulatory molecules on the cell surface, cells were harvested using dissociation buffer (5 mM EDTA in DPBS), washed, and stained with 1 μg/mL antibody, followed by flow cytometry analysis. […]
On the technique in general: An ELISA detects its analyte on a solid surface through an enzyme-linked reagent.

A short description of data set [7]: In vivo toxicity (body weight, spleen, serum cytokines). Also noted: species or system C57BL/6 mice. The following applies: s.c.; EUCV 25.2 and 100.6 nmol, Pam2CSK4 100.6 nmol, poly(I:C) 2.5 nmol; serum at 2, 8, 24 h, ELISA.
Another data set has as its target T1, hTLR2/6 (Homo sapiens, UniProt O60603+Q9Y2C9).
T1 construct: host or cells: HEK-Blue hTLR2/6 (HEK293-derived NF-kB/SEAP reporter cells)
Briefly: HEK-Blue SEAP assay (NF-κB). The format is cell-based. The following applies: HEK-Blue hTLR2/6 cells, 24 h. The procedure:
HEK-Blue hTLR2/6 (Invivogen, no. hkb-htlr26), hTLR2/1 (Invivogen, no. hkb-htlr21), and hTLR4 (Invivogen, no. hkb-htlr4) cells were cultured in DMEM (HyClone, no. SH30243.01) supplemented with 10% heat-inactivated FBS, 1% penicillin-streptomycin, and 100 μg/mL normocin (Invivogen, no. ant-nr-1), with added HEK-Blue Selection (Invivogen, no. hb-sel) added in medium after the cells were passaged twice. For the SEAP assay, HEK-Blue cells were harvested and resuspended to 2.8 × 10^5 cells/mL in a culture medium. […] The plates were then incubated for 24 h at 37°C, and 5% CO2 and the supernatant was collected. After removing the remaining cells by centrifugation, 20 μL of supernatant was transferred into a 96-well plate with 180 μL QUNATI-Blue solution (Invivogen, no. rep-pbs). All plates were incubated at 37°C, 5% CO2 for 3–4 h, and absorbance was measured at 620 nm with a microplate reader (TECAN, no. 30087502).

Where [8] appears, read: BMDCs pretreated 30 min with inhibitor, then 100 nM O, O+U or OUCV, flow cytometry.
Where [9] appears, read: BMDCs pretreated 30 min with inhibitor at various concentrations, then FAM-labeled sample 100 nM 24 h, flow cytometry.

Read-outs that look alike come from different tables or passages of the source.

T1 sequence (O60603 21-784): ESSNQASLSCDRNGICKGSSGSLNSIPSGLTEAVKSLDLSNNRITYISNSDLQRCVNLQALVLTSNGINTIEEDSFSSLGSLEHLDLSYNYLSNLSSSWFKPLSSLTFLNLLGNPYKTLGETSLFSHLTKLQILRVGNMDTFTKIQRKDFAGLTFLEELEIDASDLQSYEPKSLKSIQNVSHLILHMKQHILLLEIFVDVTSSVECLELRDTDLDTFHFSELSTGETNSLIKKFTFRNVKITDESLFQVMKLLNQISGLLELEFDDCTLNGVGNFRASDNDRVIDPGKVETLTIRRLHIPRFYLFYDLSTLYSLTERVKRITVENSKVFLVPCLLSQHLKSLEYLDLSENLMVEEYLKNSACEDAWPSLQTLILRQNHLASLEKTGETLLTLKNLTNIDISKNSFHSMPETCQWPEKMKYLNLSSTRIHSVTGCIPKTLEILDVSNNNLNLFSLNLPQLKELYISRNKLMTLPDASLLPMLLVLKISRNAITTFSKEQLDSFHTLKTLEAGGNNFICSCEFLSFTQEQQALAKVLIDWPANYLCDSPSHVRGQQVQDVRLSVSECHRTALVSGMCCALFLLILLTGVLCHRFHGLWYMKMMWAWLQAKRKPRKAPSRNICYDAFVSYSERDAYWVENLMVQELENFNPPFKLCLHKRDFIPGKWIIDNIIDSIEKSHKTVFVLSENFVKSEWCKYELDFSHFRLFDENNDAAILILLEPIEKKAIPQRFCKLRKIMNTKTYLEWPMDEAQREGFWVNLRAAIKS
T1 sequence (Q9Y2C9 32-796): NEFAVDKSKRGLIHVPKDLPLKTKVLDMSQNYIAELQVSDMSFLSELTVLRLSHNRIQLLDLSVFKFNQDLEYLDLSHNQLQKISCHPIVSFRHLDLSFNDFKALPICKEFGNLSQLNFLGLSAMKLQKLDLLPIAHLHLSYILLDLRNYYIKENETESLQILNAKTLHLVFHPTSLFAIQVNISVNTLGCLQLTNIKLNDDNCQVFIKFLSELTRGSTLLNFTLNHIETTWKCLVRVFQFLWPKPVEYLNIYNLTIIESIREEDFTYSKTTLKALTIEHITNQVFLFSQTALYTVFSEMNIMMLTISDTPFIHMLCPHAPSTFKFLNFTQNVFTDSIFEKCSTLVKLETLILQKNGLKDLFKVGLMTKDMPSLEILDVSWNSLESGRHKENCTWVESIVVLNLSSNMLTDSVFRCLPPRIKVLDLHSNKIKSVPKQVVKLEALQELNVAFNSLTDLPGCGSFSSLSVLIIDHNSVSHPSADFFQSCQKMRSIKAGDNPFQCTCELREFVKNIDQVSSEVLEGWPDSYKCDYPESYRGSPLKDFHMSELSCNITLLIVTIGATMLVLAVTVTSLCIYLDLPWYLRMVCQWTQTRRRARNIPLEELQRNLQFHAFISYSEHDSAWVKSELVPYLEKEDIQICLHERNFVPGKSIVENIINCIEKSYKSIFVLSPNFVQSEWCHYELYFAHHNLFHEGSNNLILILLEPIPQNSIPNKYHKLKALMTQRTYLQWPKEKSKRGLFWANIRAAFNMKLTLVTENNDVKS

As for `CN(C)CCCN1c2ccccc2Sc2ccc(Cl)cc21` [CM, chlorpromazine], the “effect of inhibitor on antigen presentation (SIINFEKL/H-2K^b)” value (“effect of inhibitor” for short) in the data set on BMDCs [1] (setting [8]) is “reduced”. Besides, the “effect of endocytosis/processing inhibitor on E+U and EUCV uptake” value in the data set on BMDCs [2] (setting [9]) was “reduced E+U and EUCV uptake”.

Regarding `CNC(=O)O[C@H]1COc2ccc(N3CCN(C4COC4)CC3)cc2[C@@H]1NC(=O)c1ccc(F)cc1` [CS], in the data set with BMDCs [1], the “effect of inhibitor” value is “reduction in antigen presentation”. Besides, in the data set on BMDCs [2], the “effect of endocytosis/processing inhibitor on E+U and EUCV uptake” value is “no change”.

Take `N=C(N)NC(=O)c1nc(Cl)c(N)nc1N` [amiloride]: the “effect of endocytosis/processing inhibitor on E+U and EUCV uptake” value in the data set on BMDCs [2] (setting [9]) is given as “no change”.

As for `COc1cccc2c1C(=O)c1c(O)c3c(c(O)c1C2=O)C[C@@](O)(C(=O)CO)C[C@@H]3O[C@H]1C[C@H](N)[C@H](O)[C@H](C)O1` [doxorubicin], the “cytotoxicity (relative cell viability)” value in the data set on DC2.4 cells, in the data set on Raw 264.7 cells and in the data set with TC-1 cells was “concentration-dependent toxicity” in each case.

Regarding `O=C(N/N=C/c1ccc(O)c(O)c1)c1cc2ccccc2cc1O` [dynasore], the “effect of inhibitor” value in the data set on BMDCs [1] (setting [8]) is reported as “reduced”. Besides, in the data set on BMDCs [2] (setting [9]), the “effect of endocytosis/processing inhibitor on E+U and EUCV uptake” value is “reduced E+U and EUCV uptake”.

“GQAEPDRAHYNIVTFCCKCD [HPV-16 E7_43–62 synthetic long peptide antigen]”: the “IFN-γ activity among E6- and E7-derived SLPs” value in [3] is “highest interferon gamma (IFN-γ) activity”. Also, the “mortality by day 26” value with TC-1 tumors (TC-1 tumor-bearing mice, 5 nmol s.c. days 6 and 13, anti-PD-1 200 μg i.p. days 6, 9, 12, 15, n = 8) amounted to 100%. The “Complete regression (mice / group)” value in the data set with TC-1 tumors (TC-1 tumor-bearing mice, 60 days, n = 8 per group, printed in Figure 5C) is on record as 0/8. Further, in the data set on TC-1 tumors (TC-1 tumors, 5 nmol s.c. days 6 and 13, with or without anti-PD-1 blockade, n = 8), the tumor growth result is given as “Neither E alone nor the combination of E+αPD-1 blockade significantly suppressed tumor growth”. In addition, the “distribution among inguinal, axillary and iliac lymph nodes” value in [4] is “diffused distribution to axillary and iliac LNs beyond inguinal LNs near the injection site”. Also, the “time at which the blood concentration peaked” value in [5] worked out at 0.25 h. In data set [6], the “secretion of IL-12p70 and IL-6” value was “absent”.

On to Pam2CSK4, for which the “bloodstream cytokines (IL-6, IL-12p40), systemic toxicity” value in [7] is recorded as “significant inflammatory cytokine expression”. The “nuclear factor κB induction (SEAP, OD620)” value at hTLR2/6 was “induced nuclear factor κB in TLR2/6-expressing cells”.

Regarding methyl-β-cyclodextrin [Mbcd], the “effect of endocytosis/processing inhibitor on E+U and EUCV uptake” value in the data set on BMDCs [2] (setting [9]) is recorded as “no change”.

As for poly(I:C), in data set [7], the “bloodstream cytokines (IL-6, IL-12p40), systemic toxicity” value is “significant inflammatory cytokine expression”.
